In publication PMC12281142, “A potent phenylalkylamine disrupts mycobacterial membrane bioenergetics and augments bactericidal activity of bedaquiline” (iScience, 2025):
Converted amounts (≈) assume the structure as drawn. “And” between values parts separate entries of the source, which are not always exact repeats. Equal values may be shown once. Read-outs that look alike come from different tables or passages of the source.

Columns and labels:
M. bovis BCG [1] = assay type: cell-based, Mycobacterium bovis BCG; settings: 24 h
M. bovis BCG [2] = assay: microbe, parasite or virus in culture; assay type: cell-based, Mycobacterium bovis BCG
[3] = system: Mab bolletii CCUG 50184-T; assay: MIC against Mab bolletii CCUG 50184-T; assay type: cell-based, Mycobacterium abscessus subsp. bolletii; settings: Mycobacteroides abscessus; for MIC50: CCUG50184, 72 h, 3 days
Mab abscessus = assay: Time-kill kinetics, Mab abscessus; assay type: cell-based, Mycobacterium abscessus subsp. abscessus; settings: 2xMIC90 (170 μM, 89 μg/mL)
Mtb H37Rv = assay: MIC by broth microdilution against Mtb H37Rv; assay type: cell-based, Mycobacterium tuberculosis; settings: Mycobacterium tuberculosis, H37RV, 120 h
M. bovis BCG [4] = assay type: cell-based, Mycobacterium bovis BCG; settings: PhA2 2x–4x MIC90BCG, TDZ 80 μM, 24 h
M. bovis BCG [5] = assay type: cell-based, Mycobacterium bovis BCG; settings: 2x MIC90BCG, 6 h time point, cultures still viable
M. bovis BCG [6] = assay type: cell-based, Mycobacterium bovis BCG; settings: 2xMIC90BCG
M. bovis BCG [7] = assay type: cell-based, Mycobacterium bovis BCG; settings: 0.5x to 4x MIC90BCG
M. bovis BCG-pclgR-RFP = assay type: cell-based, Mycobacterium bovis BCG; settings: 0.25x – 2x MIC90 (controls 10 μM), 24 h
clinical isolates of Mab = assay: MIC50 against Mab clinical isolates; assay type: cell-based, Mycobacterium abscessus; settings: Mycobacteroides abscessus
Mab abscessus ATCC 19977 = assay: MIC against Mab abscessus ATCC 19977; assay type: cell-based, Mycobacterium abscessus subsp. abscessus; settings: Mycobacteroides abscessus; for MIC50: ATCC19977, 72 h, 3 days
cat papillary muscle = settings: cited from earlier work
M. bovis BCG [8] = assay type: cell-based, Mycobacterium bovis BCG; settings: luminescence normalized against CFU
HepG2 = assay: Cytotoxicity in HepG2 cells; assay type: cell-based, human; settings: Homo sapiens, HepG2; 48 h, growth suppressed by 50% vs untreated
How it was run: (§1)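 Cells seeded at 50,000/well, allowed to adhere overnight in DMEM at 37 °C/5% CO2, then exposed 48 h to compound at a final 0.5% v/v DMSO. Viability read by MTS-type reagent (3 h, absorbance 490 nm), corrected for compound and vehicle blanks, and normalized to untreated cells. IC50 from sigmoidal fit of viability versus log concentration, at least 3 determinations.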

M. bovis BCG [9] = settings: 2x MIC90 over 24 h
Vero E6 = assay: Cytotoxicity in Vero E6 cells; assay type: cell-based, African green monkey; settings: growth suppressed by 50% vs untreated
How it was run: as §1

M. smegmatis mc2155 = assay: MIC against M. smegmatis mc2155; assay type: cell-based, Mycobacterium smegmatis; settings: Mycolicibacterium smegmatis
[10] = system: nonreplicating M. bovis BCG; assay type: cell-based, Mycobacterium bovis BCG; settings: 5 days, Wayne model
[11] = system: Mab massiliense CCUG 48898-T; assay: MIC against Mab massiliense CCUG 48898-T; assay type: cell-based, Mycobacterium abscessus subsp. massiliense; settings: Mycobacteroides abscessus; for MIC50: CCUG48898, 72 h, 3 days
M. bovis BCG [12] = assay type: cell-based, Mycobacterium bovis BCG; settings: exponential phase M. bovis BCG, 5 days
[13] = 7H9 medium (first value of cell)
[14] = CA-MHB medium (second value of cell)

For `CCCCCCCCC(C#N)(CCCN(C)CCc1ccc(OC)c(OC)c1)c1ccc(OC)c(OC)c1` (centres unmarked) [PhA2], the “methylene blue decolorization (O2 uptake)” value (M. bovis BCG [1]; 0.5x and 1x MIC90BCG) was “Decolorization (active O2 uptake)”, the “methylene blue decolorization (O2 uptake)” value (M. bovis BCG [1]; 2x and 4x MIC90BCG) was “No decolorization” and the “MIC90 BCG” value (M. bovis BCG [2]; M. bovis BCG) was 9 mg/L (≈ 17.2 µM). For the same compound, the MIC50 (M. bovis BCG [2]; M. bovis BCG, broth dilution, growth reduced by 50% vs untreated) was 10 µM (≈ 5.25 µg/mL), the MIC50 (M. bovis BCG [2]; Mycobacterium tuberculosis variant bovis BCG, BCG, 120 h, read-out: MIC50 BCG With Glycerol, 7H9 broth with glycerol, 5 days) was 10 µM (≈ 5.25 µg/mL) and the MIC50 (M. bovis BCG [2]; Mycobacterium tuberculosis variant bovis BCG, BCG, 120 h, read-out: MIC50 BCG Without Glycerol, 7H9 broth without glycerol, 5 days) was 22 µM (≈ 11.5 µg/mL). The MIC50 (M. bovis BCG [2]; Mycobacterium tuberculosis variant bovis BCG, BCG, M. bovis BCG, broth dilution, growth reduced by 50% vs untreated) was 10 to 16 µM (≈ 5.25 to 8.4 µg/mL), the MIC90 (M. bovis BCG [2]; Mycobacterium tuberculosis variant bovis BCG, BCG, M. bovis BCG, broth dilution, growth reduced by 90% vs untreated) was 18 µM and the MIC50 (M. bovis BCG [2]; Mycobacterium tuberculosis variant bovis BCG, BCG, read-out: M. bovis BCG MIC50 (Table S4)) was 10 µM (≈ 5.25 µg/mL). The MIC90 (M. bovis BCG [2]; Mycobacterium tuberculosis variant bovis BCG, BCG, read-out: M. bovis BCG MIC90 (Table S4)) was 18 µM, the MIC90 (M. bovis BCG [2]; Mycobacterium tuberculosis variant bovis BCG, BCG, read-out: MIC90 (Table S1), M. bovis BCG, broth dilution) was 18 µM and the MIC90 (M. bovis BCG [2]; Mycobacterium tuberculosis variant bovis BCG, BCG, read-out: MIC90 BCG, M. bovis BCG) was 9.4 mg/L. It also gave an MIC90 ([3]; CCUG50184, 7H9 broth (first value)) of 95 µM (≈ 49.9 µg/mL), an MIC50 [3, 13] of 62 µM (≈ 32.5 µg/mL) and an MIC50 [3, 14] of 16 µM (≈ 8.4 µg/mL). For the same compound, the MIC90 ([3]; CCUG50184, camH broth (second value)) was 27 µM (≈ 14.2 µg/mL), the “reduction of CFUs” value (Mab abscessus) was 10^5 fold and the MIC50 (Mtb H37Rv; read-out: MIC50 Mtb H37Rv) was 17 µM (≈ 8.92 µg/mL). For the same compound, the MIC90 (Mtb H37Rv; second value of cell MIC50/MIC90, incubation 5 days, read-out: MIC90 Mtb H37Rv) was 25 µM (≈ 13.1 µg/mL), the “NADH/NAD+ ratio” value (M. bovis BCG [4]) was “higher ratios” and the membrane depolarization (M. bovis BCG [5]) was “depolarization was evident”. For the same compound, the “reduction of CFUs” value (M. bovis BCG [6]; 21-day time point) was 10^5 fold, the “regrowth in time-kill curve” value (M. bovis BCG [6]; 21 days) was “no rebound in growth” and the “formazan formation from MTS” value (M. bovis BCG [7]) was “dose dependent reduction in formazan”. For the same compound, the “induction of pclgR promoter activity” value (M. bovis BCG-pclgR-RFP) was “induced promoter activity in a dose dependent manner”, the MIC50 (clinical isolates of Mab; read-out: MIC50 seven Mab clinical isolates) was 22 to 39 µM and the MIC50 (clinical isolates of Mab; Mab clinical isolate M9, 7H9 broth, read-out: MIC50 M9) was 26.5 µM. The MIC50 (clinical isolates of Mab; Mab clinical isolate M111, 7H9 broth, read-out: MIC50 M111) was 24 µM, the MIC50 (clinical isolates of Mab; Mab clinical isolate M232, 7H9 broth, read-out: MIC50 M232) was 22 µM and the MIC50 (clinical isolates of Mab; Mab clinical isolate M337, 7H9 broth, read-out: MIC50 M337) was 25 µM. For the same compound, the MIC50 (clinical isolates of Mab; Mab clinical isolate M404, 7H9 broth, read-out: MIC50 M404) was 26.5 µM, the MIC50 (clinical isolates of Mab; Mab clinical isolate M422, 7H9 broth, read-out: MIC50 M422) was 23 µM and the MIC50 (clinical isolates of Mab; Mab clinical isolate M506, 7H9 broth, read-out: MIC50 M506) was 23.5 µM. The MIC50 (clinical isolates of Mab; range over isolates, read-out: MIC50 seven Mab clinical isolates) was 12 to 21 mg/L, the MIC90 (Mab abscessus ATCC 19977; ATCC19977, 7H9 broth (first value), read-out: MIC90 Mab abscessus ATCC 19977) was 85 µM (≈ 44.6 µg/mL) and the MIC50 (Mab abscessus ATCC 19977; [13]) was 54 µM (≈ 28.3 µg/mL). For the same compound, the MIC50 (Mab abscessus ATCC 19977; [14]) was 19 µM (≈ 9.97 µg/mL), the MIC90 (Mab abscessus ATCC 19977; ATCC19977, Mab abscessus, read-out: MIC90 abscessus) was 85 µM and 45 µg/mL and the MIC90 (Mab abscessus ATCC 19977; ATCC19977, camH broth (second value), read-out: MIC90 Mab abscessus ATCC 19977) was 26 µM (≈ 13.6 µg/mL). For the same compound, the “ED50 (concentration to reduce maximal contractility of the papillary muscle by 50%)” value (cat papillary muscle) was 130 µM, the ATP level (M. bovis BCG [8]; 2x MIC90, 12 h) was 73% and the ATP level (M. bovis BCG [8]; 2x MIC90, 48 h) was 27%. The IC50 (HepG2) was 29 µM, the membrane permeabilization (M. bovis BCG [9]) was “induced membrane permeabilization” and the IC50 (Vero E6; 48 h) was 28 µM. The IC50 (Vero E6; Chlorocebus sabaeus, Vero C1008, 48 h) was 28 to 29 µM, the MIC50 (M. smegmatis mc2155; MC2155, 24 h, incubation 1 day, read-out: M. smegmatis mc2155 MIC50 (Table S4)) was 41 µM (≈ 21.5 µg/mL) and the MIC90 (M. smegmatis mc2155; MC2155, 24 h, incubation 1 day, read-out: M. smegmatis mc2155 MIC90 (Table S4)) was 58 µM (≈ 30.4 µg/mL). For the same compound, the MIC90 (M. smegmatis mc2155; MC2155, read-out: MIC90 M. smegmatis) was 52.5 µM (≈ 27.5 µg/mL), the “kill of hypoxic M. bovis BCG” value ([10]; 2x MIC90BCG) was “resisted killing” and the “kill of hypoxic M. bovis BCG” value ([10]; 4x MIC90BCG) was 10^3 fold. It also gave an MIC90 ([11]; CCUG48898, 7H9 broth (first value)) of 91 µM (≈ 47.8 µg/mL), an MIC50 [11, 13] of 61 µM (≈ 32 µg/mL) and an MIC50 [11, 14] of 11 µM (≈ 5.77 µg/mL). For the same compound, the MIC90 ([11]; CCUG48898, camH broth (second value)) was 28 µM (≈ 14.7 µg/mL) and the “MBC99.9 (10^3-fold kill)” value (M. bovis BCG [12]) was 2 x MIC90.
